Consider 37 compounds from the supplement of paper PMC10949913.

Several values for one entry are separate records, joined by “and”; a condition that tells them apart may be missing. Equal entries are not always repeated.

Holding throughout (assay): area under concentration-response curve (viability) (AUC (a.u.)); higher = less active
Holding throughout (conditions): 48 h

One test has as its system NCI-H295R. Put shortly: (§1)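 AC50 and area under the curve values derive from fitted concentration-response curves, restricted to inhibitory or non-responding curve classes. The curves came from three adrenocortical carcinoma cell lines in 1,536-well plates, each receiving 23 nL of every library compound at 11 concentrations. Viability was read by CellTiter-Glo luminescence after 48 h, normalised per plate to vehicle and empty-well controls.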

Another test deals with CU-ACC1. Put shortly: as §1
A further test deals with CU-ACC2. Put shortly:
as §1

On to `COc1cc(N2CCC(O)CC2)ccc1Nc1cc(Nc2ccccc2[S+](=O)([O-])C(C)C)c2cc[nH]c2n1`, for which the “area under concentration-response curve” value came out at 588 in the test with NCI-H295R, 585 with CU-ACC1 and 654 in the test with CU-ACC2.
For `COC(=O)/C=C/C(=O)OC`, in that order: 550, 525 and 608.
For `C/C=C/C[C@@H](C)C(=O)[C@H]1C(=O)N[C@@H](C(C)C)C(=O)N(C)CC(=O)N(C)[C@@H](CC(C)C)C(=O)N[C@@H](C(C)C)C(=O)N(C)[C@@H](CC(C)C)C(=O)N[C@@H](C)C(=O)N[C@H](C)C(=O)N(C)[C@@H](CC(C)C)C(=O)N(C)[C@@H](CC(C)C)C(=O)N(C)[C@@H](C(C)C)C(=O)N1C`, in that order: 524, 534 and 633.
On to `Cc1c(OCC(F)(F)F)ccnc1C[S+]([O-])c1nc2ccccc2[nH]1` (stereo unspecified), for which the entries for the “area under concentration-response curve” value in the test on NCI-H295R, in the test with CU-ACC1 and in the test on CU-ACC2 were 571, 526 and 624, respectively.
For `CC(=O)NC(CS)C(=O)O` (stereo unspecified), in that order: 457, 413 and 466.
Turning to `CC(C)C[C@@H]1NC(=O)[C@@H](C(C)C)NC(=O)[C@@H]2CCCN2C(=O)[C@@H](CC(=O)O)NC(=O)[C@@H](Cc2c[nH]c3ccccc23)NC1=O`, the “area under concentration-response curve” value stood at 550 with NCI-H295R, 489 with CU-ACC1 and 604 with CU-ACC2.
As for `CCCCCCCCCCCCCCCC(=O)O[C@@H]1[C@@H](O)[C@@H](O)[C@@H]([C@H](NC(=O)[C@@H]2C[C@@H](CCC)CN2C)[C@H](C)Cl)O[C@@H]1SC.Cl`, the results for the “area under concentration-response curve” value in the test on NCI-H295R, in the test with CU-ACC1 and in the test with CU-ACC2 were 513, 489 and 583, respectively.
Taken in the same sequence, the figures for `CN(C)C1=CC(=CC=C1)C\2=C\3C(=O)N(NC3=C/C(=O)N2C)C4=CC=CC=C4Cl` were 533, 513 and 512.
Take `OC[C@H]1O[C@@H](O[C@@H]2[C@@H](CO)O[C@](O)(CO)[C@H]2O)[C@H](O)[C@@H](O)[C@H]1O`: the results for the “area under concentration-response curve” value with NCI-H295R, in the test on CU-ACC1 and with CU-ACC2 were 532, 508 and 569, respectively.
Consider `Cc1ccc(-c2nc(N)nc3c2nnn3Cc2cccc(CO[C@H]3CCOC3)n2)o1`, for which the “area under concentration-response curve” value in the test with NCI-H295R is 561; in the test on CU-ACC1, 520; in the test with CU-ACC2, 569.
`Nc1nc(F)nc2c1ncn2[C@@H]1O[C@H](COP(=O)(O)O)[C@@H](O)[C@@H]1O`: the results for the “area under concentration-response curve” value in the test with NCI-H295R, in the test with CU-ACC1 and in the test with CU-ACC2 were 514, 527 and 521, respectively.
For `CC[C@H]1OC(=O)[C@H](C)C(=O)[C@H](C)[C@@H](O[C@H]2O[C@H](C)C[C@H](N(C)C)[C@H]2O)[C@](C)(OC)C[C@@H](C)C(=O)[C@H](C)[C@H]2N(CCCCn3cnc(-c4cccnc4)c3)C(=O)O[C@]12C`, in that order: 419, 436 and 452.
For `C[C@](Cc1c[nH]c2ccccc12)(NC(=O)OC1C2CC3CC(C2)CC1C3)C(=O)NC[C@H](NC(=O)CCC(=O)O)c1ccccc1` (stereo partly specified), in that order: 537, 510 and 582.
Taken in the same sequence, the figures for `CCOC(=O)N1c2ccc(C(F)(F)F)cc2[C@@H](N(Cc2cc(C(F)(F)F)cc(C(F)(F)F)c2)C(=O)OC)C[C@H]1CC` were 533, 502 and 636.
Take `Clc1ccc2c(N3CCN(CCCN4CCN(c5ccnc6cc(Cl)ccc56)CC4)CC3)ccnc2c1`: the “area under concentration-response curve” value in the test on NCI-H295R came out at 451; with CU-ACC1, 433; in the test on CU-ACC2 it was 450.
On to `CCC(C)CNCC(=O)N1CCc2sccc2C1c1cccc(C)n1` (stereo unspecified), for which the “area under concentration-response curve” value came to 571 in the test with NCI-H295R, 531 in the test on CU-ACC1 and 622 in the test with CU-ACC2.
Taken in the same sequence, the figures for `C[C@]12CCC(=O)C(O)=C1CC[C@@H]1[C@@H]2CC[C@]2(C)C(=O)CC[C@@H]12` were 417, 404 and 470.
For `O=C(O)CCn1c2c(c3ccccc31)C[C@H](N[S+](=O)([O-])c1ccc(F)cc1)CC2`, in that order: 496, 445 and 540.
Take `Cc1ccc([S+](=O)([O-])Nc2nc3ccccc3nc2Nc2ccc3nsnc3c2)cc1`: the “area under concentration-response curve” value in the test with NCI-H295R turned out to be 535; with CU-ACC1, 558; in the test with CU-ACC2, 640.
Taken in the same sequence, the figures for `COc1cc(C(=O)N[S+](=O)([O-])c2ccccc2C)ccc1Cc1cn(C)c2ccc(NC(=O)OC3CCCC3)cc12` were 488, 513 and 595.
For the compound `Cc1cc(C)cc(Oc2ccc(CNC(=O)[C@H](C)N)cc2C)c1`, the “area under concentration-response curve” value in the test with NCI-H295R was found to be 509; with CU-ACC1, 478; with CU-ACC2, 559.
For `COCC1(CO)C(=O)C2CCN1CC2` (stereo unspecified), in that order: 468, 443 and 513.
For the compound `CN(C)C(=O)COC(=O)Cc1ccc(OC(=O)c2ccc(NC(=N)N)cc2)cc1`, the “area under concentration-response curve” value in the test on NCI-H295R is 541; in the test on CU-ACC1 it was 464; with CU-ACC2 it was 564.
Taken in the same sequence, the figures for `COc1cc2nccc(Oc3ccc(NC(=O)NC4CC4)c(Cl)c3)c2cc1C(N)=O` were 582, 516 and 623.
Taken in the same sequence, the figures for `CNC(=O)Cn1cc(-c2ccc3c(c2)C(F)CC32NC(=O)N(CC(=O)N(Cc3ccc(F)cc3)C(C)C(F)(F)F)C2=O)cn1` (stereo unspecified) were 512, 500 and 546.
Taken in the same sequence, the figures for `C[N]1C=C(C=N1)C2=C3\C=N/NC(=O)C4=C3C(=CC(=C4)NC(=O)[C@H](N)C5CCCCC5)[NH]2` were 555, 530 and 594.
For the compound `CCC(C)(Oc1ccc(C2(c3ccc(OC(C)(CC)C(=O)O)cc3)CCCCC2)cc1)C(=O)O` (stereo unspecified), the entries for the “area under concentration-response curve” value in the test with NCI-H295R, with CU-ACC1 and with CU-ACC2 were 470, 500 and 572, respectively.
For the compound `CCCCCN(C)CCC(O)(P(=O)([O-])O)P(=O)(O)O`, the “area under concentration-response curve” value was found to be 611 in the test on NCI-H295R, 612 in the test with CU-ACC1 and 590 in the test on CU-ACC2.
Taken in the same sequence, the figures for `C1Cc2[nH]nc(-c3nn[nH]n3)c2C1` were 514, 544 and 624.
For `CCC(=O)NCC[C@@H]1CCc2ccc3c(c21)CCO3`, in that order: 531, 490 and 564.
For `COc1ccc(C(=O)N2CCN(C(=O)/C=C/c3ccc(Br)cc3)CC2)cc1`, in that order: 536, 499 and 638.
As to `CC[C@H](CC[C@@H](C)[C@H]1CC[C@H]2[C@@H]3C\C=C/4C[C@@H](O)CC[C@]4(C)[C@H]3CC[C@]12C)C(C)C`, the results for the “area under concentration-response curve” value in the test on NCI-H295R, in the test on CU-ACC1 and with CU-ACC2 were 421, 413 and 396, respectively.
With `COC1=C(F)C(=CC=C1)C/2=C(C)/N(CC3=C(F)C=CC=C3C(F)(F)F)C(=O)N(C[C@H](NCCCC(O)=O)C4=CC=CC=C4)C2=O`, the “area under concentration-response curve” value in the test on NCI-H295R was 556 and 555; with CU-ACC1, 508; in the test with CU-ACC2, 598 and 615.
On to `CC1(N)CCN(c2cnc(-c3cccc(Cl)c3Cl)c(N)n2)CC1`, for which the “area under concentration-response curve” value with NCI-H295R came out at 577; in the test with CU-ACC1 it was 543; with CU-ACC2, 627.
Taken in the same sequence, the figures for `CCCCC(F)(F)[C@@]1(O)CC[C@H]2[C@@H](CC(=O)[C@@H]2CCCCCCC(=O)O)O1` were 541, 494 and 599.
In the case of `O=C1CCCC(=O)C1C(=O)c1ccc(C(F)(F)F)cc1[N+](=O)[O-]`, the “area under concentration-response curve” value with NCI-H295R came out at 545; with CU-ACC1, 565; in the test with CU-ACC2, 576.
Taken in the same sequence, the figures for `CC(=O)NC(C)c1ccc(Oc2ccc(OC(C)C)cc2)cc1` (stereo unspecified) were 547, 539 and 605.
